Test results as given in the supplement of paper PMC10307832.

What follows are cell lines tested with CC1(C)CCC(CN2CCN(c3ccc(C(=O)NS(=O)(=O)c4ccc(NCC5CCOCC5)c([N+](=O)[O-])c4)c(Oc4cnc5[nH]ccc5c4)c3)CC2)=C(c2ccc(Cl)cc2)C1 [Venetoclax] + CCNC(=O)c1noc(-c2cc(C(C)C)c(O)cc2O)c1-c1ccc(CN2CCOCC2)cc1 [Luminespib] (partner 0.01 µM) (assay: relative viability (nuclei count vs DMSO), 5 days (fraction); higher = more cells survive). Conditions: first compound 0.01 µM.
Procedure, shortened: (§1)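 Relative viability was taken as the ratio of nuclei in treated wells to nuclei in vehicle wells. Lung cancer cell lines in 1536-well plates received compounds by pin tool one day after seeding, either one drug alone or a fixed anchor-drug dose plus five library-drug doses (not always all listed) in √10 steps. Nuclei were counted on 4× images after 5 days of treatment, and values are medians of duplicate plates.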

Cell Line	relative viability
NCI-H2405	0.747
NCI-H1437	1.07
NCI-H661	0.924
CAL-12T	0.353
H3255	0.915
NCI-H2347	0.307
NCI-H1975	0.241
NCI-H441	0.337
NCI-H1650	0.196
NCI-H1915	0.745
NCI-H2087	0.154
NCI-H1793	0.152
RERF-LC-KJ	1.19
EKVX	0.87
LCLC-103H	0.969
NCI-H1651	0.872
NCI-H1944	0.992

Same assay, conditions: first compound 0.03162 µM

Cell Line	relative viability
BEN	0.48
HCC-15	0.318
HCC-827	0.641
NCI-H460	0.0317
LU99A	0.256
NCI-H2085	0.427
A-427	0.847
NCI-H520	0.209
NCI-H838	0.255
NCI-H596	0.947
NCI-H3122	0.0939
NCI-H1395	0.805
201T	1.08
NCI-H1993	0.843
HOP-62	0.892
NCI-H1355	0.759
NCI-H2405	0.754

Cell Line	relative viability
NCI-H1437	1.19
NCI-H661	0.956
CAL-12T	0.254
H3255	0.993
NCI-H2347	0.702
NCI-H1975	0.212
NCI-H441	0.372
NCI-H1650	0.202
NCI-H1915	0.808
NCI-H2087	0.138
NCI-H1793	0.194
RERF-LC-KJ	1.19
EKVX	0.89
LCLC-103H	0.999
NCI-H1651	0.882
NCI-H1944	0.787

Same assay, conditions: first compound 0.1 µM

Cell Line	relative viability
BEN	0.401
HCC-15	0.308
HCC-827	0.237
NCI-H460	0.0311
LU99A	0.262
NCI-H2085	0.437
A-427	0.889
NCI-H520	0.221
NCI-H838	0.24
NCI-H596	1.03
NCI-H3122	0.105
NCI-H1395	0.517
201T	1.04
NCI-H1993	0.917
HOP-62	0.926
NCI-H1355	0.667
NCI-H2405	0.85

Cell Line	relative viability
NCI-H1437	1.13
NCI-H661	0.894
CAL-12T	0.375
H3255	0.846
NCI-H2347	0.405
NCI-H1975	0.191
NCI-H441	0.434
NCI-H1650	0.2
NCI-H1915	0.708
NCI-H2087	0.175
NCI-H1793	0.164
RERF-LC-KJ	1.22
EKVX	0.923
LCLC-103H	0.905
NCI-H1651	0.817
NCI-H1944	0.775

Same assay, conditions: first compound 0.3162 µM

Cell Line	relative viability
BEN	0.192
HCC-15	0.316
HCC-827	0.509
NCI-H460	0.0401
LU99A	0.227
NCI-H2085	0.37
A-427	1.07
NCI-H520	0.209
NCI-H838	0.378
NCI-H596	0.994
NCI-H3122	0.0864
NCI-H1395	0.793
201T	0.996
NCI-H1993	0.896
HOP-62	0.8
NCI-H1355	0.782
NCI-H2405	0.712

Cell Line	relative viability
NCI-H1437	1.15
NCI-H661	0.822
CAL-12T	0.24
H3255	0.947
NCI-H2347	0.283
NCI-H1975	0.172
NCI-H441	0.299
NCI-H1650	0.189
NCI-H1915	0.699
NCI-H2087	0.18
NCI-H1793	0.19
RERF-LC-KJ	1.19
EKVX	0.833
LCLC-103H	1.02
NCI-H1651	0.8
NCI-H1944	0.879

Same assay, conditions: first compound 1 µM

Cell Line	relative viability
BEN	0.513
HCC-15	0.181
HCC-827	0.694
NCI-H460	0.0316
LU99A	0.37
NCI-H2085	0.438
A-427	0.891
NCI-H520	0.187
NCI-H838	0.275
NCI-H596	1.06
NCI-H3122	0.101
NCI-H1395	0.658
201T	1.05
NCI-H1993	0.777
HOP-62	0.842
NCI-H1355	0.778
NCI-H2405	0.639

Cell Line	relative viability
NCI-H1437	1.07
NCI-H661	0.871
CAL-12T	0.412
H3255	0.822
NCI-H2347	0.948
NCI-H1975	0.251
NCI-H441	0.427
NCI-H1650	0.207
NCI-H1915	0.695
NCI-H2087	0.135
NCI-H1793	0.162
RERF-LC-KJ	1.08
EKVX	0.884
LCLC-103H	0.902
NCI-H1651	0.79
NCI-H1944	0.696

What follows are cell lines tested with CC1(C)CCC(CN2CCN(c3ccc(C(=O)NS(=O)(=O)c4ccc(NCC5CCOCC5)c([N+](=O)[O-])c4)c(Oc4cnc5[nH]ccc5c4)c3)CC2)=C(c2ccc(Cl)cc2)C1 [Venetoclax] + O=C(CCCCCCC(=O)Nc1ccccc1)NO [Vorinostat] (partner 1 µM) in the same assay as above. Conditions: first compound 0.01 µM.
Procedure, shortened: as §1

Cell Line	relative viability
BEN	0.599
HCC-15	0.8
HCC-827	0.848
NCI-H460	0.602
LU99A	0.595
NCI-H2085	0.713
A-427	0.834
